Where two headings read alike, the source gives them in different places.
Tests used:
heart valves = conditions: rats, all doses tested; cited from earlier work
[1] = rats; cited from earlier work
Human TGFβR-1 kinase = Human TGFβR-1 kinase (Homo sapiens (Human), UniProt P36897); assay: In vitro enzyme assay: inhibition of TGFβR-1 kinase activity (ADP-Glo); format: biochemical; conditions: TGFβR-1 kinase, 50 μM ATP; read-out: IC50 range
Method: In Vitro Enzyme Assay: Inhibition of TGFβR-1Kinase Activity
Human TGFβl R-1 inhibition experiments were carried out in a white 384-microplate low flange (Corning 3572) with ADP-Glo kinase Assay Kit (Promega V9101) and TGβR-1 Kinase Enzyme System (Promega V4092). […] The reaction mixture was incubated in gentle shaking for 120 min at RT, after incubation of 10 μL of ADP-Glo Reagent was added and incubated in gentle shaking for 40 min at RT. 20 μL of Kinase Detection Reagent was added and plate was incubated in gentle shaking for 30 min at RT. Luminiscence (1000 ms) was measured in Perkin Elmer EnSpire Multimode plate reader.

TGF-beta kinase (ALK-5) = TGF-beta kinase (ALK-5) (Homo sapiens (Human), UniProt P36897); assay: Determination of the intracellular TGF-beta kinase activity (ALK-5), p-SMAD3 AlphaLISA in A549 cells; format: cell-based; conditions: A549 cell line, TGF-β2 activated, p-SMAD3; read-out: IC50 range
TGF-beta kinase (ALK-5), sequence (P36897 34-503): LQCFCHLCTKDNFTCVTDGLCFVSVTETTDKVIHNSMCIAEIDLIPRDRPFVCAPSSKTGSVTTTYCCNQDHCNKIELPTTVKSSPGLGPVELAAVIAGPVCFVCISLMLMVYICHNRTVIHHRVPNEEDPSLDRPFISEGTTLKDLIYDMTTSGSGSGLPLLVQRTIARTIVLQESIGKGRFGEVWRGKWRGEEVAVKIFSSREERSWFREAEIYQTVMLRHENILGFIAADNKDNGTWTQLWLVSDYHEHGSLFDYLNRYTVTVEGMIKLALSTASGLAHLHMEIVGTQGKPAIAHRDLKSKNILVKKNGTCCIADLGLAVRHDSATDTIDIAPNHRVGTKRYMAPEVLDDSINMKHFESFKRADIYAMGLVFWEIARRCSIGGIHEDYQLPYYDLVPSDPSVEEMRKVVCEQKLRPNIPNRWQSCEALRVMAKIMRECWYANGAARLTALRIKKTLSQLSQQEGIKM
Method: Determination of the Intracellular TGF-beta Kinase Activity (ALK-5)
The experiments were carried out in A549 cell line. 30000 cells were seeded in 200 μl of culture medium (Sigma D6046) supplemented with L-Glutamine (Sigma G7513), Penicillin/Streptomycin (Invitrogen 11058) and FBS (Sigma F9665) on a 96 wells microplate (Becton Dickinson 353072). After 16 hours medium waschanged to serum free medium.

[2] = Metabolic stability assay, rat microsomes; format: in vitro ADME; conditions: for microsomal CLint: rat recombinant microsomes (Tebu-Xenotech), pH 7.4
Method: (§1) Metabolic Stability Assay
(§2) Human and rat recombinant microsomes from Tebu-Xenotech were employed in the assay. They content 0.5 mg/ml of protein. The following quantities were added to each well of a 96-well microplate.
(§3) Plates were incubated at 37° C. and 75 μL samples were taken at 0, 10, 20, 40 and 60 minutes. Samples were transferred to a microplate and 75 μl Acetonitrile were added for inactivating the microsomes, and 30 μl of H2O for improving the chromatographic conditions and kept at 4° C. When all the samples were taken the plate was centrifuged at […] for 30 min at 15° C. Supernatant was taken and injected in the UPLC-MS/MS.
(§4) Stationary phase: Reverse phase Acquity UPLC® BEH C18 1.7 μm (2.1 mm×50 mm) (Waters). Mobile phase: A: 0.1% formic; B:acetonitrile+0.1% formic acid. Flow: 0.6 ml/min. The chromatographic equipment employed was an UPLC QSM Waters Acquity. Compound concentrations were calculated from the UV peak areas. The response was linear in the range between 10 ng/ml and 0.3125 ng/ml. Metabolic stability was calculated from the logarithm of the remaining compound at each of the times evaluated.
(§5) The data will be fitted to the one phase exponential decay equation using GraphPad Prism® software. The half-life (t1/2) generated by the software will be reported. Intrinsic clearance will be calculated using the formula where, k=decay rate constant (min^−1).

[3] = Plasma pharmacokinetic assay, single oral administration; format: in vivo, male Sprague Dawley rats; conditions: rat, P.O., 5 mg/kg
Method: Plasma Pharmacokinetic Assay
The objective of this study was to investigate the plasma pharmacokinetics of some compounds of the present invention in male Sprague Dawley rats following a single oral administration. Three rats per compound were used in this study. Animals were administered with suspension formulation of each compound in 0.5% Tween-80 and 99.5% NaCMC (0.5% w/v in RO Water) by oral route at 5 mg/kg. The blood samples were collected from set of three rats at each time point in labelled micro centrifuge tube containing K2EDTA solution as anticoagulant at 0.25, 0.5, 1, 2, 4, 6, 8, 12 and 24 hr (p.o.). Plasma samples were separated by centrifugation of whole blood and stored below −70±10° C. until bioanalysis. All samples were processed for analysis by protein precipitation using acetonitrile and analysed with fit-for-purpose LC-MS/MS method (LLOQ=1.01 ng/mL). Pharmacokinetic parameters were calculated using the non-compartmental analysis tool of Phoenix WinNonlin® (Version 7.0).

[4] = Metabolic stability assay, human microsomes; format: in vitro ADME; conditions: for microsomal CLint: human recombinant microsomes (Tebu-Xenotech)
Method: as §1, §2, §3, §4, §5

[5] = Identification study of metabolite; format: in vitro ADME
Excerpt: In an identification study of metabolite was identified Compound A. Said compound is 2-(3-(6-methylpyridin-2-yl)-4-(quinolin-4-yl)-1H-pyrazol-1-yl)acetic acid and has the following formula: […]
Compound A was identified as the major metabolite of examples 9, 15, 20, 22, 24 and 26, among others.

MINK = MINK (Homo sapiens (Human), UniProt Q8N4C8); conditions: cited from earlier work
MINK, sequence (Q8N4C8 whole entry): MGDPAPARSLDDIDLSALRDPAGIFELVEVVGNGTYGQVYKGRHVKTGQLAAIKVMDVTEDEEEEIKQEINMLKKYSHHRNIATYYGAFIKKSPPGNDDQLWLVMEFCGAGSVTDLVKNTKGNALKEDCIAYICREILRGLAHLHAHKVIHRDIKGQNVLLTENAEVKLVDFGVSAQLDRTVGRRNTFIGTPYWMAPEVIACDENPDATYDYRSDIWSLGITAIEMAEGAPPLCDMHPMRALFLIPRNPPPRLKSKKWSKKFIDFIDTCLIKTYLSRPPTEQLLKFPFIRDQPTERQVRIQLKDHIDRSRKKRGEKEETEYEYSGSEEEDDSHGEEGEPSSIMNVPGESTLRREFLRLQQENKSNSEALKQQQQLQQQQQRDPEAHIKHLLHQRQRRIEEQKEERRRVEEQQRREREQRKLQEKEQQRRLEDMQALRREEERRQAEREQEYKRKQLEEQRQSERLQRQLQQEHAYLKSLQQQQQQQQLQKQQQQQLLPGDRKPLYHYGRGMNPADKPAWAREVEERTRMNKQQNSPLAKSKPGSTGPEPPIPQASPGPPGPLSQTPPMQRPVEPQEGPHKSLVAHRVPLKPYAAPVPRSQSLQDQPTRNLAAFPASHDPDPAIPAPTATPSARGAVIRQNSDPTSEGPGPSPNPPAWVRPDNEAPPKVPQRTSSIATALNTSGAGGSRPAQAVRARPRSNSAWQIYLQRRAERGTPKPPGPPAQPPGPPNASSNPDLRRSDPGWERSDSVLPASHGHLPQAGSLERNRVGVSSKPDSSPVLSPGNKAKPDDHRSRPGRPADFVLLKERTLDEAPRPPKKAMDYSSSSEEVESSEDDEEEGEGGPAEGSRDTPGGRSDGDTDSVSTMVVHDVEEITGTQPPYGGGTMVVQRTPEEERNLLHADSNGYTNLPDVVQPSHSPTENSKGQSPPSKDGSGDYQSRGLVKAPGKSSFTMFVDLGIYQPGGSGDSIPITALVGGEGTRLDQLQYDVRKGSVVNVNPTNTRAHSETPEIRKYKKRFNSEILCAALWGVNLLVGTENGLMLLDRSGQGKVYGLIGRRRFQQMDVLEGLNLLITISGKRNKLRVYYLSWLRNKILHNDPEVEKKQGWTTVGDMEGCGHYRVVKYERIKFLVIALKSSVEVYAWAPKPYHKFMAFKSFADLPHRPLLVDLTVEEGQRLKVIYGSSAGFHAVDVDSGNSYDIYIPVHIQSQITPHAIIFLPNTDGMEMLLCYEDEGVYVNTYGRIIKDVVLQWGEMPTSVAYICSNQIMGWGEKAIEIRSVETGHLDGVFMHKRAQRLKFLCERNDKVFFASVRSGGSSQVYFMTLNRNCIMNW

ACVR2B = ACVR2B (Homo sapiens (Human), UniProt Q13705); conditions: cited from earlier work
ACVR2B, sequence (Q13705 19-512, species assumed): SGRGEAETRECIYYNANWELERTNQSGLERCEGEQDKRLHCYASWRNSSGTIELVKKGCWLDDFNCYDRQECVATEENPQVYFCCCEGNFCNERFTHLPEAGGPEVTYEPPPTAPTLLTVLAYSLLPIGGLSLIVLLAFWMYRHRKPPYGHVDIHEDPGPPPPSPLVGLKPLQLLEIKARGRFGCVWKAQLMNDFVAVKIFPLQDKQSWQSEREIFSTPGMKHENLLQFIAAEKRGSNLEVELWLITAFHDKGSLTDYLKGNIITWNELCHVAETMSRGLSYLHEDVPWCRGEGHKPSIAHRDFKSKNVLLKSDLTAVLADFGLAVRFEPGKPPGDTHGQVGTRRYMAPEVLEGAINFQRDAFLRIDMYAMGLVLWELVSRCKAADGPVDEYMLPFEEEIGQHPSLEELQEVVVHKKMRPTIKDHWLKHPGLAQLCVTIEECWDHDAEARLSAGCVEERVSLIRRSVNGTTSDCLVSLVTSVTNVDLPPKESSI

ALK4 = ALK4 (Homo sapiens (Human), UniProt P36896); conditions: cited from earlier work
ALK4, sequence (P36896 24-505, species assumed): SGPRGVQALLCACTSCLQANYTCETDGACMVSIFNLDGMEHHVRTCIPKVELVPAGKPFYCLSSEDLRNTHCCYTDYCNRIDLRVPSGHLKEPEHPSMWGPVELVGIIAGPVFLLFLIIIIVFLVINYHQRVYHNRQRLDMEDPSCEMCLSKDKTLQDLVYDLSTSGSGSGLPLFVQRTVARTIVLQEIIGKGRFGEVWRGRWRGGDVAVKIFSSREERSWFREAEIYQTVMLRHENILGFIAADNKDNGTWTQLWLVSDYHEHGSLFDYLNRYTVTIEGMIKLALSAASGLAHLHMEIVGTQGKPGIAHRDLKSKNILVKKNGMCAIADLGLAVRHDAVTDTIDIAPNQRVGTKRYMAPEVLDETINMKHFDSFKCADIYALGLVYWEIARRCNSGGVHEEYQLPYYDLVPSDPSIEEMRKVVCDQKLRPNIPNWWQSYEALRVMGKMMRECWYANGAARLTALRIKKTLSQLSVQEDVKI

[6] = in vivo; cited from earlier work
ALK6 = ALK6 (Homo sapiens (Human), UniProt O00238); conditions: cited from earlier work
ALK6, sequence (O00238 14-502): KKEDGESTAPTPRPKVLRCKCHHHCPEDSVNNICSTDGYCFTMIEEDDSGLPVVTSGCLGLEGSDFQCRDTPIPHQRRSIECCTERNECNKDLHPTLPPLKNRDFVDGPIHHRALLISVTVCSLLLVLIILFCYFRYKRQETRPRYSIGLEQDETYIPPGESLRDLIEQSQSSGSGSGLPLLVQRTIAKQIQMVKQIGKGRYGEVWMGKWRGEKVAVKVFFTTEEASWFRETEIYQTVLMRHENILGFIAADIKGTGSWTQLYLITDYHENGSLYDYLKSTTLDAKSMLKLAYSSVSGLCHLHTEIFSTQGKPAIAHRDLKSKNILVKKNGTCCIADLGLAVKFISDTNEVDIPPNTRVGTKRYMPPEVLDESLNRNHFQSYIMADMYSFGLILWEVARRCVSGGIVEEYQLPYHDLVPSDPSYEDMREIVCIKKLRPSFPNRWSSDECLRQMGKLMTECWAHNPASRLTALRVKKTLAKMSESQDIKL

myelofibrosis (MF) = conditions: mouse models; cited from earlier work
TGFβRII = TGFβRII (Homo sapiens (Human), UniProt P37173); conditions: cited from earlier work
TGFβRII, sequence (P37173 23-567): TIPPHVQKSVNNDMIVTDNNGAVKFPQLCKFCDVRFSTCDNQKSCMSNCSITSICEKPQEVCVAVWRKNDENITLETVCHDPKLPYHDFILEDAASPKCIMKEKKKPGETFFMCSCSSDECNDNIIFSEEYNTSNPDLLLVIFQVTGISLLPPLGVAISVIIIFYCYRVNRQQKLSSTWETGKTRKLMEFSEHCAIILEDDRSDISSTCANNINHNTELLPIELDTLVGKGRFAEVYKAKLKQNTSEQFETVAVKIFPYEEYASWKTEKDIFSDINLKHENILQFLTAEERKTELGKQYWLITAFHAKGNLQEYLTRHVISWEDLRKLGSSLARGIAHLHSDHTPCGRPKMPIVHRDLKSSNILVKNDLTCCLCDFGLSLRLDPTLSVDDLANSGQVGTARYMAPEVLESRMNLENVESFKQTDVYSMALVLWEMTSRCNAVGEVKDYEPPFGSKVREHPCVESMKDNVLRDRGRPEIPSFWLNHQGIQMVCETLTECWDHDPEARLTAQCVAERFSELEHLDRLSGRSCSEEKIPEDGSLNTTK

[7] = dogs; cited from earlier work
[8] = rats; cited from earlier work; remark: listed apart in the source
human pancreatic cancer = conditions: systemic administration; cited from earlier work
[9] = male, Sprague-Dawley, po, plasma

Human TGFβR-1 kinase, sequence (P36897 34-503): as the sequence (P36897 34-503) above

IC50 (Human TGFβR-1 kinase) [nM] | IC50 (TGF-beta kinase (ALK-5)) [nM] | % remanent (sampling time 60 min) [2] [%] | microsomal CLint [2] [µL/min/mg] | % remanent (sampling time 60 min) [4] [%] | microsomal CLint [4] [µL/min/mg] | Major metabolite identified [5] | SMILES | also measured
 |  |  |  |  |  |  | c1ccc(-c2nc3c(c(-n4ccc5cnccc54)n2)CCC3)nc1 [AZ12601011] | Histopathology finding in heart (heart valves): heart valve lesions
 |  |  |  |  |  |  | Cc1ccc(Oc2ccnc(Nc3ccc(S(N)(=O)=O)cc3)c2)c(C)n1 [AZ12799734] | Histopathology finding in heart (heart valves): heart valve lesions
 |  |  |  |  |  |  | Cc1cccc(-c2[nH]c(CNc3ccccc3F)nc2-c2ccc3ncnn3c2)n1 [EW-7197] | oral bioavailability [1]: 51%
< 100 | < 100 | 0.14 | 644 | 0.03 | 378 | Compound A | Cc1cccc(-c2nn(CC(=O)NCc3ccccc3Cl)cc2-c2ccnc3ccccc23)n1 [Example 22, N-(2-chlorobenzyl)-2-(3-(6-methylpyridin-2-yl)-4-(quinolin-4-yl)-1H-pyrazol-1-yl)acetamide] | AUC(0-inf) [3, 9]: 15.3 ng·h/mL; AUC(0-t) [3, 9]: 13.7 ng·h/mL; Cmax [3, 9]: 20 ng/mL; Tmax [3, 9]: 19.8 min
< 100 | < 100 | 0.01 | 360 | 0.05 | 307 | Compound A | Cc1cccc(-c2nn(CC(=O)NCc3c(F)cccc3F)cc2-c2ccnc3ccccc23)n1 [Example 24, N-(2,6-difluorobenzyl)-2-(3-(6-methylpyridin-2-yl)-4-(quinolin-4-yl)-1H-pyrazol-1-yl)acetamide] | Plasma concentrations quantifiable (PK parameters not calculable) ([3]; LLOQ 1.01 ng/mL): Concentrations were quantifiable only at 0.25
< 100 | 100 to 500 | 0.08 | 826 | 0.05 | 622 | Compound A | Cc1cccc(-c2nn(CC(=O)NCc3c(C)cccc3C)cc2-c2ccnc3ccccc23)n1 [Example 26, N-(2,6-dimethylbenzyl)-2-(3-(6-methylpyridin-2-yl)-4-(quinolin-4-yl)-1H-pyrazol-1-yl)acetamide] | 
 |  |  |  |  |  |  | Cc1cccc(-c2nn3c(c2-c2ccnc4ccc(C(N)=O)cc24)CCC3)n1 [Galunisertib] | IC50 MINK (MINK): submicromolar; IC50 ACVR2B (ACVR2B): submicromolar; IC50 (ALK4): 770 nM; oral bioavailability [6]: orally bioavailable; IC50 ALK6 (ALK6): submicromolar; Effect on myelofibrosis (myelofibrosis (MF)): significantly improved MF; IC50 TGFβRII (TGFβRII): submicromolar; Major target organs for toxicity [7]: the heart and great vessels; Major target organs for toxicity [8]: the heart and great vessels
 |  |  |  |  |  |  | c1ccc(-c2nn3c(c2-c2ccnc4cc(OCCN5CCOCC5)ccc24)CCC3)nc1 [LY2109761] | Effect on metastasis (human pancreatic cancer): suppresses liver and other abdominal site metastasis

— patent US12297186B2, “Benzylamide derivatives as inhibitors of transforming growth factor-beta receptor I/ALK5” (AGOMAB SPAIN, S.L.U., priority 2019, dated 2025)
